Test results taken from PubChem BioAssay (NCI).
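All cell lines were grown in 96-well plates and treated with compound for 48 hours. Definition used: TGI = concentration required for complete inhibition of growth.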

Key:
Assay in all cases: inhibition of tumour cell growth, NCI panel, 48 h
A549 NSCLC = system: A549 NSCLC
MALME-3M melanoma = system: MALME-3M melanoma
MCF7 breast = system: MCF7 breast
MDA-N = system: MDA-N
NCI-H460 lung = system: NCI-H460 lung
NCI-H522 lung = system: NCI-H522 lung
HOP-62 NSCLC = system: HOP-62 NSCLC
HS 578T breast = system: HS 578T breast
M14 melanoma = system: M14 melanoma
CCRF-CEM leukemia = system: CCRF-CEM leukemia

Structure (SMILES)	TGI (A549 NSCLC) [µM]	TGI (MALME-3M melanoma) [µM]	TGI (MCF7 breast) [µM]	TGI (MDA-N) [µM]	TGI (NCI-H460 lung) [µM]	TGI (NCI-H522 lung) [µM]	TGI (HOP-62 NSCLC) [µM]	TGI (HS 578T breast) [µM]	TGI (M14 melanoma) [µM]	TGI (CCRF-CEM leukemia) [µM]
N#CCC(=O)Nn1c(CC#N)nnc1Cc1ccccc1	> 100	> 100	> 100	> 100	> 100	> 100	> 100	> 100	> 100	
C=C(C=O)c1c2c(nc3ccccc13)C(=O)c1ccccc1C2=O		3.27				2.09	2.48	0.961	1.6	0.792
Cc1ccc2c(c1)NC(=O)CCSSCCC(=O)N2	> 100	> 100		> 100	> 100	> 100	> 100	> 100	> 100	> 100
CC(=O)Nc1ncc(Sc2ccccc2C(=O)O)s1	> 100		> 100	> 100	> 100		> 100	> 100	> 100	> 100
COc1cc(/C=C/C(C)=O)ccc1OP(=O)(O)O	> 100	> 100	> 100	> 100	> 100	> 100	> 100	> 100	> 100	
O=C(O)CSCC(=O)Nc1ccc2cccc3c2c1CC3	> 100	> 100	> 100	> 100		> 100	> 100	> 100	> 100	> 100
CC(C)(C)[Si](C)(C)OCCCC#CCO	> 100	> 100			> 100	> 100			> 100	> 100
CCCNC(=S)N/N=C/c1cccc(C)n1	73.5	> 100	> 100	> 100		37	> 100	> 100	27.2	7.05
CC1CCCC2=C1C(c1ccc(Cl)cc1)n1c(s/c(=C\c3ccc(Cl)cc3)c1=O)=N2 (stereo unspecified)	> 100		> 100	> 100			> 100	> 100	> 100	> 100
CCOP(=O)(Nc1ccc(-c2ccccc2)cc1)OCC	> 100	> 100	> 100	> 100	> 100	> 100	> 100	> 100	> 100	
COc1cc(N=NN(C)C)c(C(C)c2c3cc(OC)c(OC)cc3cc[n+]2C)cc1OC (stereo unspecified)	> 100	87.5	> 100	> 100	> 100		> 100	> 100	> 100	> 100
Cc1c(-c2cc3n(n2)C(c2cccs2)C(C#N)=C(c2ccccc2)N3)c(=O)n(-c2ccccc2)n1C (stereo unspecified)	> 100	> 100	> 100		> 100	> 100	> 100			> 100
Cc1csc2nc(-c3ccc([N+](=O)[O-])cc3)c(/C=N/N=C(N)N)n12	3.2	3.61		3.51	3.43	3.08	3.28	3.15	3.41	4.11
